Results: the supplement of paper PMC10307832

What was measured:
Experiment in all cases: relative viability (nuclei count vs DMSO), 5 days (fraction); higher = more cells survive
[1] = compound: C1=CC2=C(C=C(C(=C2N=C1)O)N=NC3=CC4=C(C=C3)C=C(C=C4)S(=O)(=O)O)S(=O)(=O)O + CC1(C)CCC(c2ccc(Cl)cc2)=C(CN2CCN(c3ccc(C(=O)NS(=O)(=O)c4ccc(N[C@H](CCN5CCOCC5)CSc5ccccc5)c(S(=O)(=O)C(F)(F)F)c4)cc3)CC2)C1 [Navitoclax] (partner 0.5 µM)
In short: (§1)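 The day after seeding in 1536-well plates, lung cancer cell lines were treated by pin tool with a single drug, or with a fixed anchor-drug dose together with five library-drug doses (not always all listed) in √10 steps. After 5 days, a combined fix-and-stain solution (final 0.05% Triton X-100, 1% formaldehyde, 1 ug/ml Hoechst) was added. Nuclei counted on 4× images gave relative viability as treated counts over vehicle counts, reported as the median of duplicate plates.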

AT-7519 + Tozasertib = compound: O=C(NC1CCNCC1)c1n[nH]cc1NC(=O)c1c(Cl)cccc1Cl [AT-7519] + Cc1cc(Nc2cc(N3CCN(C)CC3)nc(Sc3ccc(NC(=O)C4CC4)cc3)n2)n[nH]1 [Tozasertib] (partner 0.1 µM)
In short: as §1

AT-7519 + Phenformin = compound: O=C(NC1CCNCC1)c1n[nH]cc1NC(=O)c1c(Cl)cccc1Cl [AT-7519] + N=C(N)NC(=N)NCCc1ccccc1 [Phenformin] (partner 250 µM)
In short: as §1

AT-7519 + Decitabine = compound: O=C(NC1CCNCC1)c1n[nH]cc1NC(=O)c1c(Cl)cccc1Cl [AT-7519] + Nc1ncn([C@H]2C[C@H](O)[C@@H](CO)O2)c(=O)n1 [Decitabine] (partner 2 µM)
In short: as §1

UMC-11 showed a relative viability ([1]; first compound 0.08 µM) of 0.261, a relative viability ([1]; first compound 0.253 µM) of 0.334 and a relative viability ([1]; first compound 0.8 µM) of 0.314. For the same cell line, the relative viability ([1]; first compound 2.53 µM) was 0.293, the relative viability ([1]; first compound 8 µM) was 0.333 and the relative viability (AT-7519 + Tozasertib; first compound 0.01 µM) was 0.223. For the same cell line, the relative viability (AT-7519 + Tozasertib; first compound 0.03162 µM) was 0.211, the relative viability (AT-7519 + Tozasertib; first compound 0.3162 µM) was 0.278 and the relative viability (AT-7519 + Tozasertib; first compound 1 µM) was 0.219. The relative viability (AT-7519 + Phenformin; first compound 0.01 µM) was 0.319, the relative viability (AT-7519 + Phenformin; first compound 0.03162 µM) was 0.339 and the relative viability (AT-7519 + Phenformin; first compound 0.3162 µM) was 0.308. It also gave a relative viability (AT-7519 + Phenformin; first compound 1 µM) of 0.237, a relative viability (AT-7519 + Decitabine; first compound 0.01 µM) of 0.675 and a relative viability (AT-7519 + Decitabine; first compound 0.03162 µM) of 0.551. The relative viability (AT-7519 + Decitabine; first compound 0.3162 µM) was 0.514 and the relative viability (AT-7519 + Decitabine; first compound 1 µM) was 0.306.
